The source of these data is patent US20260274807A1 (University of Health Sciences and Pharmacy in St. Louis, priority 2023, published 2026).

For one assay, the target named is T1, ERRα (Homo sapiens, UniProt P11474).
T1 construct: expressed in transfected cells; host or cells: HEK293
T1 sequence (P11474 1-423): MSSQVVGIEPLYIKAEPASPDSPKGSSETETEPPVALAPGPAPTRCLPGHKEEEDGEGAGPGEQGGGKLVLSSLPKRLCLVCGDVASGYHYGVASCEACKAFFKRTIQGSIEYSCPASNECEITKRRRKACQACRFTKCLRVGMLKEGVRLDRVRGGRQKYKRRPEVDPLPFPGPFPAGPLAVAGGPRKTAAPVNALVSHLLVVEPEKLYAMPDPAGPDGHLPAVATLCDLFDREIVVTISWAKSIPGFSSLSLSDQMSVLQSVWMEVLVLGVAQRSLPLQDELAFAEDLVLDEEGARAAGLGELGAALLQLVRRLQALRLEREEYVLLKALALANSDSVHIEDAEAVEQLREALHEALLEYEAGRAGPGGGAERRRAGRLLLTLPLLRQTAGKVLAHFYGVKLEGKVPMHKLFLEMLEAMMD
In words: ERRE luciferase reporter assay in HEK293 cells transfected with pcDNA3.1 ERRα. The class given is cell-based. Further details: key to EC50 (ERRα) μM: * <1 μM; ** 1-5 μM; *** >5 μM; i.a. (inactive). The note with it: HEK293 cells transfected with ERRE reporter construct and pcDNA3.1 ERRα; compound for 24 hours; luciferase activity.

A further assay deals with T2, ERRγ (Homo sapiens, UniProt P62508).
T2 construct: expressed in transfected cells; host or cells: HEK293
T2 sequence (P62508 1-458): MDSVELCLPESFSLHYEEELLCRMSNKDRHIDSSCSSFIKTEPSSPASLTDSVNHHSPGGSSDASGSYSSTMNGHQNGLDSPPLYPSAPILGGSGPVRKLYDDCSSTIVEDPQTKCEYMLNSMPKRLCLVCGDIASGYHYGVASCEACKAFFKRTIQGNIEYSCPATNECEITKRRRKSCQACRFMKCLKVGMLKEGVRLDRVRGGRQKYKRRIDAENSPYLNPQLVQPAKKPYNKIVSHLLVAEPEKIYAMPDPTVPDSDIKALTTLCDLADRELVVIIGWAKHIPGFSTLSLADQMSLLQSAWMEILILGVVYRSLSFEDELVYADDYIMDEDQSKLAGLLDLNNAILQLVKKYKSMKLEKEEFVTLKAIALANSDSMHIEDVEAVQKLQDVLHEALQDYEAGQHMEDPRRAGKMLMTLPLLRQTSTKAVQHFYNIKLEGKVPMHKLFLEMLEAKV
Kind of assay: ERRE luciferase reporter assay in HEK293 cells transfected with pcDNA3.1 ERRγ. The class given is cell-based. On the set-up: key to EC50 (ERRγ) μM: * <1 μM; ** 1-5 μM; *** >5 μM; i.a. (inactive). The following applies: HEK293 cells transfected with ERRE reporter construct and pcDNA3.1 ERRγ; compound for 24 hours; luciferase activity.

The structures appear in SMILES notation. pEC50: −log10 of the molar value.

Consider `FC(F)(F)c1ccc(-c2nnc(-c3ccccn3)s2)cc1` [Entry 1009, 2-(pyridin-2-yl)-5-(4-(trifluoromethyl)phenyl)-1,3,4-thiadiazole], for which the negative logarithm of the EC50 (pEC50) on ERRα and on ERRγ was greater than 6.00 each time.
`c1ccc(-c2nnc(-c3cnccn3)s2)cc1` [Entry 1010, 2-phenyl-5-(pyrazin-2-yl)-1,3,4-thiadiazole]: the negative-log EC50 (pEC50) at ERRα and on ERRγ was greater than 6.00 each time.
In the case of `COc1cccc(-c2nnc(-c3ccccc3)s2)c1` [Entry 1012, 2-(3-methoxyphenyl)-5-phenyl-1,3,4-thiadiazole], the pEC50 on ERRα and at ERRγ was greater than 6.00 throughout.
Turning to `COc1ccccc1-c1nnc(-c2ccccc2)s1` [Entry 1013, 2-(2-methoxyphenyl)-5-phenyl-1,3,4-thiadiazole], the negative-log EC50 (pEC50) at ERRα and at ERRγ was greater than 6.00 in each case.
On to `FC(F)(F)c1cccc(-c2nnc(-c3ccccc3)s2)c1` [Entry 1014, 2-phenyl-5-(3-(trifluoromethyl)phenyl)-1,3,4-thiadiazole], for which the negative logarithm of the EC50 (pEC50) on ERRα and at ERRγ was 5.30 to 6.00 throughout.
Regarding `Cc1ccccc1-c1nnc(-c2ccccc2)s1` [Entry 1015, 2-phenyl-5-(o-tolyl)-1,3,4-thiadiazole], the negative-log EC50 (pEC50) on ERRα and at ERRγ was greater than 6.00 each time.
Turning to `CC(C)(C)c1ccc(-c2nnc(-c3ccccc3[N+](=O)[O-])s2)cc1` [Entry 1016, 2-(4-(tert-butyl)phenyl)-5-(2-nitrophenyl)-1,3,4-thiadiazole], the negative-log EC50 (pEC50) at ERRα and on ERRγ was greater than 6.00 throughout.
As to `Clc1ccc(-c2nnc(-c3ccccc3)s2)cc1` [Entry 1017, 2-(4-chlorophenyl)-5-phenyl-1,3,4-thiadiazole], the pEC50 at ERRα and at ERRγ was greater than 6.00 in each case.
In the case of `COc1ccc(-c2nnc(-c3ccc(Br)cc3)s2)cc1` [Entry 1018, 2-(4-bromophenyl)-5-(4-methoxyphenyl)-1,3,4-thiadiazole], the negative-log EC50 (pEC50) on ERRα is greater than 6.00; at ERRγ it was 5.30 to 6.00.
For `COc1ccc(-c2nnc(-c3ccco3)s2)cc1` [Entry 1019, 2-(furan-2-yl)-5-(4-methoxyphenyl)-1,3,4-thiadiazole], in that order: greater than 6.00 and greater than 6.00.
Taken in the same sequence, the figures for `COc1ccc(-c2nnc(-c3ccc(C)o3)s2)cc1` [Entry 1020, 2-(4-methoxyphenyl)-5-(5-methylfuran-2-yl)-1,3,4-thiadiazole] were greater than 6.00 and greater than 6.00.
Taken in the same sequence, the figures for `COc1ccc(-c2nnc(-c3ccccc3[N+](=O)[O-])s2)cc1` [Entry 1021, 2-(4-methoxyphenyl)-5-(2-nitrophenyl)-1,3,4-thiadiazole] were greater than 6.00 and greater than 6.00.
On to `COc1ccc(-c2nnc(-c3cccs3)s2)cc1` [Entry 1022, 2-(4-methoxyphenyl)-5-(thiophen-2-yl)-1,3,4-thiadiazole], for which the negative logarithm of the EC50 (pEC50) at ERRα and at ERRγ was greater than 6.00 in each case.
For `COc1cccc(-c2nnc(-c3ccccc3)s2)c1[N+](=O)[O-]` [Entry 1023, 2-(3-methoxy-2-nitrophenyl)-5-phenyl-1,3,4-thiadiazole], the negative-log EC50 (pEC50) at ERRα and on ERRγ was greater than 6.00 in each case.
On to `COc1ccc(-c2nnc(-c3ccccc3Cl)s2)cc1` [Entry 1024, 2-(2-chlorophenyl)-5-(4-methoxyphenyl)-1,3,4-thiadiazole], for which the pEC50 on ERRα and on ERRγ was greater than 6.00 each time.
For `Cc1ccc(-c2nnc(-c3ccnc4ccccc34)s2)cc1` [Entry 1025, 2-(quinolin-4-yl)-5-(p-tolyl)-1,3,4-thiadiazole], the pEC50 on ERRα and on ERRγ was greater than 6.00 in each case.
With `COc1ccc(-c2nnc(-c3ccccc3)s2)c(N)c1` [Entry 1026, 5-methoxy-2-(5-phenyl-1,3,4-thiadiazol-2-yl)aniline], the pEC50 at ERRα and on ERRγ was less than 5.30 throughout.
For `CC(C)(C)c1ccc(-c2nnc(-c3ccccc3N)s2)cc1` [Entry 1027, 2-(5-(4-(tert-butyl)phenyl)-1,3,4-thiadiazol-2-yl)aniline], the pEC50 at ERRα and at ERRγ was greater than 6.00 each time.
Take `O=[N+]([O-])c1ccccc1Cc1nnc(-c2ccc(C(F)(F)F)cc2)s1` [Entry 1028, 2-(2-nitrobenzyl)-5-(4-(trifluoromethyl)phenyl)-1,3,4-thiadiazole]: the pEC50 at ERRα and at ERRγ was 5.30 to 6.00 throughout.
Turning to `Cc1ccc(-c2nnc(-c3ccc(C)o3)s2)cc1` [Entry 1029, 2-(5-methylfuran-2-yl)-5-(p-tolyl)-1,3,4-thiadiazole], the figures for the pEC50 at ERRα and on ERRγ were 5.30 to 6.00 and greater than 6.00, respectively.
For `Nc1ccc(-c2nnc(-c3ccccc3)s2)cc1` [Entry 1030, 4-(5-phenyl-1,3,4-thiadiazol-2-yl)aniline], in that order: greater than 6.00 and greater than 6.00.
Taken in the same sequence, the figures for `Cc1ccc(-c2nnc(-c3cccs3)s2)cc1` [Entry 1031, 2-(thiophen-2-yl)-5-(p-tolyl)-1,3,4-thiadiazole] were greater than 6.00 and greater than 6.00.
Take `O=C(Nc1nnc(-c2ccccc2)s1)c1ccccc1` [Entry 1032, N-(5-phenyl-1,3,4-thiadiazol-2-yl)benzamide]: the “EC50 (ERRα) μM” value on ERRα is recorded as “i.a”. For the same compound, the “EC50 (ERRγ) μM” value at ERRγ is “i.a”.
As to `COc1ccc(-c2nnc(NC(=O)c3ccccc3)s2)cc1` [Entry 1033, N-(5-(4-methoxyphenyl)-1,3,4-thiadiazol-2-yl)benzamide], the “EC50 (ERRα) μM” value at ERRα is listed as “i.a”. In addition, at ERRγ, the “EC50 (ERRγ) μM” value is reported as “i.a”.
As to `Cc1ccc(C(=O)Nc2nnc(-c3ccccc3Cl)s2)cc1` [Entry 1034, N-(5-(2-chlorophenyl)-1,3,4-thiadiazol-2-yl)-4-methylbenzamide], the “EC50 (ERRα) μM” value on ERRα is “i.a”. Further, the “EC50 (ERRγ) μM” value on ERRγ is reported as “i.a”.
Turning to `COc1ccc([N+](=O)[O-])c(-c2nnc(-c3ccccc3)s2)c1` [Entry 1035, 2-(5-methoxy-2-nitrophenyl)-5-phenyl-1,3,4-thiadiazole], the pEC50 at ERRα and at ERRγ was 5.30 to 6.00 in each case.
On to `COc1ccc(-c2nnc(-c3ccccc3)s2)c([N+](=O)[O-])c1` [Entry 1036, 2-(4-methoxy-2-nitrophenyl)-5-phenyl-1,3,4-thiadiazole], for which the pEC50 on ERRα and at ERRγ was greater than 6.00 in each case.
As to `O=[N+]([O-])c1cc(Br)ccc1-c1nnc(-c2ccccc2)s1` [Entry 1037, 2-(4-bromo-2-nitrophenyl)-5-phenyl-1,3,4-thiadiazole], the values for the pEC50 at ERRα and at ERRγ were 5.30 to 6.00 and greater than 6.00, respectively.
Taken in the same sequence, the figures for `c1ccc(Cc2nnc(-c3ccccc3)s2)cc1` [Entry 1038, 2-benzyl-5-phenyl-1,3,4-thiadiazole] were 5.30 to 6.00 and 5.30 to 6.00.
Taken in the same sequence, the figures for `c1ccc(-c2ccc(Cc3nnc(-c4ccccc4)s3)cc2)cc1` [Entry 1039, 2-([1,1′-biphenyl]-4-ylmethyl)-5-phenyl-1,3,4-thiadiazole] were less than 5.30 and less than 5.30.
For `Cc1cccc(-c2nnc(-c3ccccc3Cl)s2)c1` [Entry 1041, 2-(2-chlorophenyl)-5-(m-tolyl)-1,3,4-thiadiazole], in that order: less than 5.30 and greater than 6.00.
With `Cc1ccc(-c2nnc(-c3ccc4ccccc4n3)s2)cc1` [Entry 1042, 2-(quinolin-2-yl)-5-(p-tolyl)-1,3,4-thiadiazole], the pEC50 at ERRα is less than 5.30; at ERRγ it was greater than 6.00.
